Here are results for ten compounds from publication PMC7712541, “Seven New Cytotoxic and Antimicrobial Xanthoquinodins from Jugulospora vestita” (Journal of Fungi, 2020).

Values after ≈ are worked out from the molar mass of the structure shown.

One series relates to Mycobacterium smegmatis. In words: MIC, antibacterial test. The format is cell-based. On the set-up: key: –: no inhibition observed under test conditions. As for the experimental part: (§1) Compounds were tested for their antimicrobial activity against […] fungi (Candida albicans, Mucor hiemails, Pichia anomala, Rhodotorula glutinis and Schizosaccharomyces pombe), four different Gram-positive bacteria (Bacillus subtilis, Micrococcus luteus, Mycobacterium smegmatis and Staphylococcus aureus), and three Gram-negative bacteria (Chromobacterium violaceum, Escherichia coli and Pseudomonas aeruginosa), using oxytetracycline as a positive control against Gram-positive and Gram-negative bacteria, while nystatin was used as an antifungal positive control. Besides, cytotoxicities of the compounds against seven mammalian cell lines (human endocervical adenocarcinoma KB 3.1, breast cancer MCF-7, lung cancer A549, ovary cancer SK-OV-3, prostate cancer PC-3, squamous cancer A431, and mouse fibroblasts L929) were determined by the microculture tetrazolium test (MTT) method, using epothilon B as the positive control. Both bioactivity assays were performed following our standard protocols.

The next series deals with Micrococcus luteus. In words: MIC, antibacterial test. As to conditions: read-out: Minimum inhibitory concentration (MIC). The series is classed as cell-based. As for the experimental part:
as §1

Another series relates to Staphylococcus aureus. In words: MIC, antibacterial test. The format is cell-based. As to conditions: read-out: Minimum inhibitory concentration (MIC). How it is done: as §1
A further series relates to Bacillus subtilis. In words: MIC, antibacterial test. The format is cell-based. As to conditions: read-out: Minimum inhibitory concentration (MIC). As for the experimental part: as §1
Series [1] has as its system Schizosaccharomyces pombe. In words: MIC, antifungal test. Set-up: key to Minimum inhibitory concentration (MIC): –: no inhibition observed under test conditions. The format is cell-based. How it is done: as §1
In another series the test system is Candida albicans. The series is described as follows: MIC, antifungal test. The series is classed as cell-based. Set-up: key to Minimum inhibitory concentration (MIC): –: no inhibition observed under test conditions. How it is done:
as §1

A further series concerns Rhodotorula glutinis. In words: MIC, antifungal test. The format is cell-based. Set-up: key to Minimum inhibitory concentration (MIC): –: no inhibition observed under test conditions. The following applies: for MIC: read-out: Minimum inhibitory concentration (MIC). As for the experimental part:
as §1

In another series the test system is Mucor hiemalis. In words: MIC, antifungal test. The series is classed as cell-based. On the set-up: key to Minimum inhibitory concentration (MIC): –: no inhibition observed under test conditions. As to conditions: for MIC: read-out: Minimum inhibitory concentration (MIC). As for the experimental part:
as §1

The next series relates to Pichia anomala. The series is described as follows: MIC, antifungal test. The format is cell-based. Set-up: key to Minimum inhibitory concentration (MIC): –: no inhibition observed under test conditions. How it is done: as §1
A further series relates to Escherichia coli. In words: MIC, antibacterial test. On the set-up: key to Minimum inhibitory concentration (MIC): –: no inhibition observed under test conditions. The format is cell-based. How it is done:
as §1

Another series relates to Pseudomonas aeruginosa. In words: MIC, antibacterial test. The format is cell-based. Set-up: key to Minimum inhibitory concentration (MIC): –: no inhibition observed under test conditions. How it is done: as §1
In series [2] the test system is Chromobacterium violaceum. The series is described as follows: MIC, antibacterial test. The format is cell-based. Set-up: key to Minimum inhibitory concentration (MIC): –: no inhibition observed under test conditions. As for the experimental part:
as §1

A short description of a further series: Cytotoxicity, MTT method. How it is done: as §1
Series [3] deals with KB 3.1, L929, A549, SK-OV-3, PC-3, A431, and MCF-7 mammalian cell lines. The series is described as follows: Cytotoxicity, summary over all tested cell lines. The series is classed as cell-based. The following applies: seven mammalian cell lines; read-out: IC50 values, range over all tested cell lines. As for the experimental part:
as §1

Setting [4] is: human, A431 squamous cancer cells.
Where [5] appears, read: human, KB 3.1 endocervical adenocarcinoma cells.
Where [6] appears, read: human, MCF-7 breast cancer cells.
[7] abbreviates: human, PC-3 prostate cancer cells.
[8] abbreviates: human, SK-OV-3 ovary cancer cells.
[9] abbreviates: read-out: Minimum inhibitory concentration (MIC).

On to `CCCC(=O)O[C@H]1c2cc(C)cc(O)c2C(=O)C2=C(O)[C@H]3C=C[C@]21Cc1cc(O)c2c(c13)O[C@@](C(=O)OC)([C@@H]1CCC(=O)O1)CC2=O` [Compound 6, Xanthoquinodin B14], for which the “Minimum inhibitory concentration (MIC)” value (with Mycobacterium smegmatis; in [1]; in the series with Candida albicans; with Rhodotorula glutinis; with Pichia anomala; in the series with Escherichia coli) was “–” throughout. The “Minimum inhibitory concentration (MIC)” value (with Pseudomonas aeruginosa; in [2]) was “–” in each case. The MIC in the series on Micrococcus luteus worked out at 8.3 µg/mL (≈ 12.9 µM); with Staphylococcus aureus it was 4.2 µg/mL (≈ 6.52 µM); in the series on Bacillus subtilis, 4.2 µg/mL (≈ 6.52 µM); with Mucor hiemalis, 66.7 µg/mL (≈ 103 µM). The concentration for half-maximal inhibition (IC50) (in general, the concentration that inhibits the measured activity by half) is 3.11 µM in “Cytotoxicity, MTT method” (setting [4]); 18.6 µM in “Cytotoxicity, MTT method” (human, A549 lung cancer cells); 3.42 µM in the series “Cytotoxicity, MTT method” (setting [5]); 1.1 µM in the series “Cytotoxicity, MTT method” (setting [6]); 5.43 µM in “Cytotoxicity, MTT method” (setting [7]); 3.88 µM in “Cytotoxicity, MTT method” (setting [8]). Further, the IC50 is 10.6 µM in the series “Cytotoxicity, MTT method” (mouse, L929 fibroblasts) and 1.03 to 18.6 µM in series [3].
`CCCC(=O)O[C@H]1c2cc(C)cc(O)c2C(=O)C2=C(O)[C@H]3C=C[C@]21Cc1cc2c(c(O)c13)C(=O)C1=C(O)CC[C@H](O)[C@@]1(C(=O)OC)O2` [Compound 1, Xanthoquinodin A11]: the “Minimum inhibitory concentration (MIC)” value (in the series on Mycobacterium smegmatis; in series [1]; in the series with Candida albicans; with Rhodotorula glutinis; with Pichia anomala; in the series on Escherichia coli) was “–” in each case. Besides, the “Minimum inhibitory concentration (MIC)” value (with Pseudomonas aeruginosa; in [2]) was “–” each time. Besides, the MIC in the series on Micrococcus luteus was determined as 4.2 µg/mL (≈ 6.52 µM); in the series on Staphylococcus aureus it was 2.1 µg/mL (≈ 3.26 µM); with Bacillus subtilis, 0.4 µg/mL (≈ 0.621 µM); in the series with Mucor hiemalis, 66.7 µg/mL (≈ 103 µM). For the same compound, the IC50 is 1.13 µM in “Cytotoxicity, MTT method” (mouse) and 0.03 to 1.46 µM in [3].
On to `CCCC(=O)O[C@H]1c2cc(C)cc(O)c2C(=O)C2=C(O)[C@H]3C=C[C@]21Cc1cc(O)c2c(c13)O[C@@]1(C(=O)OC)C(=C(O)[C@@H](O)C[C@@H]1O)C2=O` [Compound 4, Xanthoquinodin B12], for which the “Minimum inhibitory concentration (MIC)” value (in the series with Mycobacterium smegmatis; in series [1]; in the series on Candida albicans; with Pichia anomala; in the series on Escherichia coli; in the series with Pseudomonas aeruginosa) was “–” each time. The “Minimum inhibitory concentration (MIC)” value in series [2] is recorded as “–”. In addition, the MIC with Micrococcus luteus worked out at 2.1 µg/mL (≈ 3.18 µM); in the series on Staphylococcus aureus, 2.1 µg/mL (≈ 3.18 µM); with Bacillus subtilis, 0.8 µg/mL (≈ 1.21 µM); in the series on Rhodotorula glutinis it was 66.7 µg/mL (≈ 101 µM); in the series with Mucor hiemalis, 66.7 µg/mL (≈ 101 µM). Further, the IC50 is 13.5 µM in “Cytotoxicity, MTT method” (mouse) and 1.03 to 18.6 µM in series [3].
Turning to `CCCC(=O)O[C@H]1c2cc(C)cc(O)c2C(=O)C2=C(O)[C@H]3C=C[C@]21Cc1cc(O)c2c(c13)O[C@@](C(=O)OC)([C@@H](O)CCC(=O)O)CC2=O` [Compound 7, Xanthoquinodin B15], the “Minimum inhibitory concentration (MIC)” value (in the series with Mycobacterium smegmatis; in series [1]; in the series on Candida albicans; with Rhodotorula glutinis; in the series with Pichia anomala; in the series with Escherichia coli) was “–” in each case. Further, the “Minimum inhibitory concentration (MIC)” value (in the series with Pseudomonas aeruginosa; in [2]) was “–” in each case. The MIC with Micrococcus luteus worked out at 4.2 µg/mL (≈ 6.34 µM); in the series with Staphylococcus aureus, 8.3 µg/mL (≈ 12.5 µM); in the series on Bacillus subtilis, 4.2 µg/mL (≈ 6.34 µM); with Mucor hiemalis, 66.7 µg/mL (≈ 101 µM). Besides, the IC50 was determined as 2.87 µM in “Cytotoxicity, MTT method” (setting [4]); 11.5 µM in the series “Cytotoxicity, MTT method” (human, A549 lung cancer cells); 3.47 µM in the series “Cytotoxicity, MTT method” (setting [5]); 1.03 µM in the series “Cytotoxicity, MTT method” (setting [6]); 4.98 µM in “Cytotoxicity, MTT method” (setting [7]); 3.93 µM in the series “Cytotoxicity, MTT method” (setting [8]). For the same compound, the IC50 in the series “Cytotoxicity, MTT method” (mouse, L929 fibroblasts) is 9.97 µM; in series [3], 1.03 to 18.6 µM.
As to `COC(=O)[C@]12Oc3c(c(O)cc4c3[C@@H]3C=C[C@]5(C4)C(=C3O)C(=O)c3c(O)cc(C)cc3[C@@H]5OC(C)=O)C(=O)C1=C(O)CC[C@@H]2O` [Compound 5, Xanthoquinodin B13], the “Minimum inhibitory concentration (MIC)” value (with Mycobacterium smegmatis; in [1]; with Candida albicans; with Rhodotorula glutinis; in the series with Pichia anomala; in the series on Escherichia coli) was “–” throughout. The “Minimum inhibitory concentration (MIC)” value (with Pseudomonas aeruginosa; in series [2]) was “–” in each case. In addition, the MIC is 2.1 µg/mL (≈ 3.41 µM) in the series with Micrococcus luteus, 8.3 µg/mL (≈ 13.5 µM) in the series with Staphylococcus aureus, 0.2 µg/mL (≈ 0.324 µM) in the series with Bacillus subtilis and 66.7 µg/mL (≈ 108 µM) with Mucor hiemalis. The IC50 in “Cytotoxicity, MTT method” (mouse) is 1.12 µM; in series [3] it was 0.03 to 1.46 µM.
For the compound `CN(C)[C@@H]1C(O)=C(C(N)=O)C(=O)[C@@]2(O)C(O)=C3C(=O)c4c(O)cccc4[C@@](C)(O)[C@H]3[C@H](O)[C@@H]12` [oxytetracycline, reference compound], the MIC in the series on Micrococcus luteus amounted to 0.8 µg/mL (≈ 1.74 µM); in the series with Staphylococcus aureus it was 0.4 µg/mL (≈ 0.869 µM); with Bacillus subtilis, 8.3 µg/mL (≈ 18 µM); in the series on Escherichia coli (setting [9]), 3.3 µg/mL (≈ 7.17 µM); in [2] (setting [9]), 0.8 µg/mL (≈ 1.74 µM).
Take `CCCC(=O)O[C@H]1c2cc(C)cc(O)c2C(=O)C2=C(O)[C@H]3C=C[C@]21Cc1cc(O)c2c(c13)O[C@]1(C(=O)OC)C(=C(O)CC[C@@H]1O)C2=O` [Compound 3, Xanthoquinodin B11]: the “Minimum inhibitory concentration (MIC)” value in the series on Mycobacterium smegmatis was “–”; in the series on Rhodotorula glutinis, 2.10 µg/mL (≈ 3.26 µM); in the series with Mucor hiemalis, 2.10 µg/mL (≈ 3.26 µM); with Pichia anomala it was 8.30 µg/mL (≈ 12.9 µM); in the series with Escherichia coli it was “–”; with Pseudomonas aeruginosa, “–”. Further, the “Minimum inhibitory concentration (MIC)” value in series [2] is listed as “–”. In addition, the MIC stood at 2.1 µg/mL (≈ 3.26 µM) in the series on Micrococcus luteus; 1 µg/mL (≈ 1.55 µM) with Staphylococcus aureus; 0.2 µg/mL (≈ 0.31 µM) in the series with Bacillus subtilis; 66.7 µg/mL (≈ 103 µM) in series [1] (setting [9]); 16.7 µg/mL (≈ 25.9 µM) in the series with Candida albicans (setting [9]); 2.1 µg/mL (≈ 3.26 µM) in the series with Rhodotorula glutinis. Further, the MIC is 2.1 µg/mL (≈ 3.26 µM) in the series with Mucor hiemalis and 8.3 µg/mL (≈ 12.9 µM) in the series on Pichia anomala (Hansenula anomala, read-out: Minimum inhibitory concentration (MIC)). The half-inhibitory concentration (IC50) worked out at 0.05 µM in “Cytotoxicity, MTT method” (setting [4]); 0.26 µM in “Cytotoxicity, MTT method” (human, A549 lung cancer cells); 0.15 µM in “Cytotoxicity, MTT method” (setting [5]); 0.04 µM in the series “Cytotoxicity, MTT method” (setting [6]); 0.65 µM in “Cytotoxicity, MTT method” (setting [7]); 0.15 µM in the series “Cytotoxicity, MTT method” (setting [8]). Also, the half-maximal inhibitory concentration (IC50) was 0.98 µM in “Cytotoxicity, MTT method” (mouse, L929 fibroblasts) and 0.03 to 1.46 µM in series [3].
Consider `C[C@@H]1[C@H](O)[C@@H](C)/C=C/C=C/CC/C=C/C=C/C=C/C=C/C(O[C@H]2O[C@H](C)[C@@H](O)[C@H](N)[C@@H]2O)CC2O[C@](O)(CC(O)C(O)CCC(O)CC(O)CC(O)CC(=O)O[C@H]1C)CC(O)C2C(=O)O` (stereo partly drawn) [nystatin, reference compound], for which the “Minimum inhibitory concentration (MIC)” value is on record as 33.30 ^1 µg/mL in [1]; 33.30 ^1 µg/mL in the series with Candida albicans; 16.70 ^1 µg/mL with Rhodotorula glutinis; 33.30 ^1 µg/mL with Mucor hiemalis; 33.30 ^1 µg/mL with Pichia anomala.
With `NC[C@H]1O[C@H](O[C@H]2[C@H](O)[C@@H](O[C@H]3O[C@H](CO)[C@@H](O)[C@H](N)[C@H]3O)[C@H](N)C[C@@H]2N)[C@H](O)[C@@H](O)[C@@H]1O` [kanamycin, reference compound], the “Minimum inhibitory concentration (MIC)” value in the series with Mycobacterium smegmatis is 1.70 ^3 µg/mL.
Regarding `CNC(C)C1CCC(N)C(OC2C(N)CC(N)C(OC3OCC(C)(O)C(NC)C3O)C2O)O1` (stereo not drawn) [gentamicin, reference compound], in the series with Pseudomonas aeruginosa (setting [9]), the MIC was found to be 0.4 µg/mL (≈ 0.838 µM).
